“Also recorded” adds a separate entry of the source.
Key:
hNav1.2 [1] = molecular target: T1, hNav1.2 (Homo sapiens, UniProt Q99250); test: Automated patch clamping (QPatch-16), hNav1.2; assay type: cell-based
T1 construct: host or cells: HEK293
Description: (§1) HEK293 cells stably expressing hNav1.1-1.7 or CHO cells stably expressing hNav1.8 (as described in Example 3 above) were cultured in a T-175 flask in selection antibiotic-free media at 37° C. Cells were grown to 70-80% confluence and harvested using Detachin (Bio-Scientific, NSW, Australia) at 37° C. for 2 min. Dissociated cells were then resuspended in Ex-Cell ACF CHO Medium with HEPES (25 mM; Sigma-Aldrich Co.) and allowed to recover on the QStirrer for 30 min.
(§2) The extracellular solution contained in mM: NaCl 145, KCl 4, CaCl2 2, MgCl2 1, HEPES 10 and glucose 10. The pH was adjusted to 7.4 with NaOH and osmolarity was adjusted with sucrose to 305 mOsm. The intracellular solution contained in mM: CsF 140, ethylene glycol tetraacetic acid (EGTA)/CsOH 1/5, HEPES 10 and NaCl 10. The pH was adjusted to 7.3 with CsOH and osmolarity adjusted with sucrose to 320 mOsm. […]
(§3) The current-voltage (IV) curve was constructed with a holding potential of −80 mV followed by a pre-pulse of −100 mV for 50 ms and a series of 50 ms step pulses that ranged from −80 to 50 mV in 5 mV increments before returning to a holding potential of −80 mV. Voltage-dependence of activation was determined as normalized Nav conductance (GNa) using: GNa=INa/(Vmemb−Vrev), where Vmemb is the membrane potential and Vrev is the reversal potential for each cell. […]

hNav1.7 = molecular target: T2, hNav1.7 (Homo sapiens, UniProt Q15858); test: Automated patch clamping (QPatch-16), hNav1.7; assay type: cell-based; conditions: for voltage dependence of activation, V50: control −25.1±0.5 mV
T2 construct: host or cells: HEK293
Description: as §1
The extracellular solution contained in mM: NaCl 145, KCl 4, CaCl2 2, MgCl2 1, HEPES 10 and glucose 10. The pH was adjusted to 7.4 with NaOH and osmolarity was adjusted with sucrose to 305 mOsm. The intracellular solution contained in mM: CsF 140, ethylene glycol tetraacetic acid (EGTA)/CsOH 1/5, HEPES 10 and NaCl 10. The pH was adjusted to 7.3 with CsOH and osmolarity adjusted with sucrose to 320 mOsm.
Whole-cell patch-clamp experiments were performed on a QPatch-16 automated electrophysiology platform (Sophion Bioscience, Ballerup, Denmark) using 16-channel planar patch chip plates (QPlates; Sophion Bioscience) with a patch hole diameter of 1 μm and resistance of 2±0.02 MΩ with the following parameters: positioning pressure −60 mbar, minimum seal resistance 0.1 GΩ, holding potential −100 mV, holding pressure −20 mbar.
Whole-cell currents were filtered at 5 kHz and acquired at 25 kHz.
The current-voltage (IV) curve was constructed with a holding potential of −80 mV followed by a pre-pulse of −100 mV for 50 ms and a series of 50 ms step pulses that ranged from −80 to 50 mV in 5 mV increments before returning to a holding potential of −80 mV. Voltage-dependence of activation was determined as normalized Nav conductance (GNa) using: GNa=INa/(Vmemb−Vrev), where Vmemb is the membrane potential and Vrev is the reversal potential for each cell. The voltage of activation data was fitted to a Boltzmann sigmoidal curve using GraphPad Prism, version 6.0.

hNav1.6 = molecular target: T3, hNav1.6 (Homo sapiens, UniProt Q9UQD0); test: FLIPR membrane potential assay, hNav1.6; assay type: cell-based
T3 construct: host or cells: HEK293
How it was run: (§4)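 Stable HEK293 lines expressing each human Nav subtype were plated 48 h before the assay and loaded with red membrane potential dye for 30 min at 37 °C.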

hNav1.5 [2] = molecular target: T4, hNav1.5 (Homo sapiens, UniProt Q14524); test: FLIPR membrane potential assay, hNav1.5; assay type: cell-based
T4 construct: host or cells: HEK293
How it was run: as §4

hNav1.8 = molecular target: T5, hNav1.8 (Homo sapiens, UniProt Q9Y5Y9); test: Automated patch clamping (QPatch-16), hNav1.8; assay type: cell-based
T5 construct: host or cells: HEK293
Description: as §1, §2, §3

hNav1.1 = molecular target: T6, hNav1.1 (Homo sapiens, UniProt P35498); test: FLIPR membrane potential assay, hNav1.1; assay type: cell-based
T6 construct: host or cells: HEK293
How it was run: as §4

hNav1.3 = molecular target: T7, hNav1.3 (Homo sapiens, UniProt Q9NY46); test: Automated patch clamping (QPatch-16), hNav1.3; assay type: cell-based; conditions: mean±SEM
T7 construct: host or cells: HEK293
Description: as §1, §2, §3

hNav1.2 [3] = molecular target: T1, hNav1.2; test: FLIPR membrane potential assay, hNav1.2; assay type: cell-based
How it was run: as §4

[4] = tested on: OD1-induced spontaneous pain behaviours in mice; test: OD1 model of spontaneous pain behaviours; assay type: in vivo
Description: For behavioural assessment adult male C57BL/6J mice aged 6-8 weeks were used. Animals were housed in groups of 3 or 4 per cage, under 12 h light-dark cycles and had standard rodent chow and water ad libitum.
OD1 was diluted in phosphate-buffered saline/0.1% BSA (300 nM) and administered by shallow subcutaneous (intraplantar) injection to the left hind paw of mice in a volume of 40 μL under light isoflurane (3%) anesthesia. Mice were then placed individually into polyvinyl boxes (10×10×10 cm), and spontaneous pain behavior (licks and flinches) was counted by an investigator unaware of the treatments received from video recordings for 10 min post-injection.

hNav1.4 = molecular target: T8, hNav1.4 (Homo sapiens, UniProt P35499); test: Automated patch clamping (QPatch-16), hNav1.4; assay type: cell-based
T8 construct: host or cells: HEK293
Description: as §1, §2, §3

hNav1.5 [5] = molecular target: T4, hNav1.5; test: Automated patch clamping (QPatch-16), hNav1.5; assay type: cell-based
Description: as §1, §2, §3

T2 sequence (Q15858 whole entry): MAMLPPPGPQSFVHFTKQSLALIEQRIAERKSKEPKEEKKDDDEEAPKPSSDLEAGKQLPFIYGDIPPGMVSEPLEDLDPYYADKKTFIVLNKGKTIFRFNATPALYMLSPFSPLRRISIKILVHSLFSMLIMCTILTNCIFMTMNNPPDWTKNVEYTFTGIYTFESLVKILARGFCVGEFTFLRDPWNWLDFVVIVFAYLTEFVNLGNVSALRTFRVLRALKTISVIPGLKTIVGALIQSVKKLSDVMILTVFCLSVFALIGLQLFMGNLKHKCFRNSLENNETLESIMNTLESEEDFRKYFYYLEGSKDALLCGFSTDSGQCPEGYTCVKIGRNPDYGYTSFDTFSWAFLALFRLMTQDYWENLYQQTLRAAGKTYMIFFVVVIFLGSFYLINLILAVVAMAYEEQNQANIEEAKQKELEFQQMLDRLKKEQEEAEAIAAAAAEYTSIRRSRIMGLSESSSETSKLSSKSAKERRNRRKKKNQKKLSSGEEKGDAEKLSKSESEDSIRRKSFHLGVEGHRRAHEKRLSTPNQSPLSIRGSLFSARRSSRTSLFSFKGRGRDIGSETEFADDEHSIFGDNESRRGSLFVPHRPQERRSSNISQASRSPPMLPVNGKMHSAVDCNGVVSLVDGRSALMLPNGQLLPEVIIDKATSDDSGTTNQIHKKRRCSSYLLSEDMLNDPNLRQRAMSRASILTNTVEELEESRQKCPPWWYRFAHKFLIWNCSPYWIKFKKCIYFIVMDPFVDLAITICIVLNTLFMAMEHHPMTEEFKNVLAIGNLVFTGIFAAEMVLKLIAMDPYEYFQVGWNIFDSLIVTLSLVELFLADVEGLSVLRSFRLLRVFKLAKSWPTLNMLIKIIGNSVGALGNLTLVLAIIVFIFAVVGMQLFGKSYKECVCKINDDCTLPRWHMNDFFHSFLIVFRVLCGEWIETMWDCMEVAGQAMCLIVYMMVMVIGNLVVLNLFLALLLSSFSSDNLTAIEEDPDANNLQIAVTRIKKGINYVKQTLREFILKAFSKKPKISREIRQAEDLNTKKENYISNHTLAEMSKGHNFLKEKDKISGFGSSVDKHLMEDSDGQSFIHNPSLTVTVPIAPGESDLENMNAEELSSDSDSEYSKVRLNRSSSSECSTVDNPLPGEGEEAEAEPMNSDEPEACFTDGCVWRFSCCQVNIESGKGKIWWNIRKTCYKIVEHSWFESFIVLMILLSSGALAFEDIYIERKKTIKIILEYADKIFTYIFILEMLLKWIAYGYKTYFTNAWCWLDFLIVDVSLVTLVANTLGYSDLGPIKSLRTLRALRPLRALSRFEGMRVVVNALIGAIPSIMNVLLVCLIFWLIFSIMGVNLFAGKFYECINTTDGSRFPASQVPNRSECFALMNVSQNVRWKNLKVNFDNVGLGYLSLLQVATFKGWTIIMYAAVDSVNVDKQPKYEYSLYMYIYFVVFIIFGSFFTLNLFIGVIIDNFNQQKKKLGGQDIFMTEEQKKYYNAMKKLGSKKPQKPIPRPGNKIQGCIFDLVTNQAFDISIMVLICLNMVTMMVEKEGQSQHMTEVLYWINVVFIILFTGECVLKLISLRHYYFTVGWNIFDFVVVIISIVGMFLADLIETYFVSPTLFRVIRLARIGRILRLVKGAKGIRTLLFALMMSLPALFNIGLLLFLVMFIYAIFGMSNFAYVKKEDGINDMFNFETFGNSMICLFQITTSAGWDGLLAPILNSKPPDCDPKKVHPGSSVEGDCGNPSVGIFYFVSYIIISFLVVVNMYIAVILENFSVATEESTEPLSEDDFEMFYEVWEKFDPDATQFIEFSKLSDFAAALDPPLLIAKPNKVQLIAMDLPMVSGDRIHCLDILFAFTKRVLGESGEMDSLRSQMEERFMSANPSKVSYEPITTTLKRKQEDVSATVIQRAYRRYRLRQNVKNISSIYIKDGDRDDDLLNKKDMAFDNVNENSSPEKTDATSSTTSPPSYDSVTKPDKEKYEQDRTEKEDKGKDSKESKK
T1 sequence (Q99250 whole entry): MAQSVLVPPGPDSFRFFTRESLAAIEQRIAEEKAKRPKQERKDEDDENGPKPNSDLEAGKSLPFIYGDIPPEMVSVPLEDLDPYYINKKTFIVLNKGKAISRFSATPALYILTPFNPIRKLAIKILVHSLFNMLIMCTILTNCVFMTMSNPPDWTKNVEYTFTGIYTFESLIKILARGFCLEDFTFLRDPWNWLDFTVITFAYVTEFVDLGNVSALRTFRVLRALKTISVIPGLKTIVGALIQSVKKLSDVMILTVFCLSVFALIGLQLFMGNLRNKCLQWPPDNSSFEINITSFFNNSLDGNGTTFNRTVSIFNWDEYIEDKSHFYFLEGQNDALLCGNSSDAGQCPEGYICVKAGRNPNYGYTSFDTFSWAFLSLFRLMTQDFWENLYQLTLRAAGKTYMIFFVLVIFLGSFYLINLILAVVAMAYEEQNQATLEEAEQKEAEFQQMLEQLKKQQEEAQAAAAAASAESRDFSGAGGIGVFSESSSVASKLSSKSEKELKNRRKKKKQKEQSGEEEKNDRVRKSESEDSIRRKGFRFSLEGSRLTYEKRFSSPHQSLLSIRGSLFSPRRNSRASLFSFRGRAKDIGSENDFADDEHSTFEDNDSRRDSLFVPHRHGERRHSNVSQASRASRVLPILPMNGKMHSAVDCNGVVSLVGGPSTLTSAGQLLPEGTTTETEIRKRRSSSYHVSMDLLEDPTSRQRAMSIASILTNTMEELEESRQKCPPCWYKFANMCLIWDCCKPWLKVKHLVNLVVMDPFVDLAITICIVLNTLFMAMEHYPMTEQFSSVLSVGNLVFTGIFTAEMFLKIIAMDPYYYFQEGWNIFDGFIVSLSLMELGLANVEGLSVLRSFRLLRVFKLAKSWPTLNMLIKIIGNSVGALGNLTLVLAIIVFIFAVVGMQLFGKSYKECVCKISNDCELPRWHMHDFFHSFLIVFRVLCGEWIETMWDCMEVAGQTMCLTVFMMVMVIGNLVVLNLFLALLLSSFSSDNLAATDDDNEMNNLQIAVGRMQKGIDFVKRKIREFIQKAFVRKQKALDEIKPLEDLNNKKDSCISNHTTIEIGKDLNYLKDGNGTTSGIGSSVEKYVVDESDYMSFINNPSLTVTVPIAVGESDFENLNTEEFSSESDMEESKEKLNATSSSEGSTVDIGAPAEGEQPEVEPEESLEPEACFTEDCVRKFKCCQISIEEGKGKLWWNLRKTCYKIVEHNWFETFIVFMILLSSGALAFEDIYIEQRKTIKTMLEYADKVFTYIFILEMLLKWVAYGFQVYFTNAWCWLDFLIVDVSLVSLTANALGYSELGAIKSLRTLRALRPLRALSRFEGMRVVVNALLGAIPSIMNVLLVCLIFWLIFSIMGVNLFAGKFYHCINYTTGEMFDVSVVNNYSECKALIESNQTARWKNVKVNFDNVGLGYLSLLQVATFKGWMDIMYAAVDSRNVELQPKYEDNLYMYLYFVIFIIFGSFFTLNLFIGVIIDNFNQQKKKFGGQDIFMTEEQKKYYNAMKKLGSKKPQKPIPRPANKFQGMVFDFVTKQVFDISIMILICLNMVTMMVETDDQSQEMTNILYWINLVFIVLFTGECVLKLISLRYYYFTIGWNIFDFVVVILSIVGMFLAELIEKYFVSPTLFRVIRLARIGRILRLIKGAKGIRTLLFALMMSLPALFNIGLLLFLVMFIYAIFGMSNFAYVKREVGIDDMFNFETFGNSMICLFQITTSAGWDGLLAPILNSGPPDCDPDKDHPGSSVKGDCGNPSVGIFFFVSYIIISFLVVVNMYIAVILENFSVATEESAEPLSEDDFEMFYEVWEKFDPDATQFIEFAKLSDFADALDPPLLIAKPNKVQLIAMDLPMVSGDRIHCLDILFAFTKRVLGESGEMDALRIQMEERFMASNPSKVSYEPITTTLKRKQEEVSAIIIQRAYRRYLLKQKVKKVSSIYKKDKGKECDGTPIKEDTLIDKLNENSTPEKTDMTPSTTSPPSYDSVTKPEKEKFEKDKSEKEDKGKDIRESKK

CSCC[C@@H]1NC(=O)[C@H](Cc2ccc(O)cc2)NC(=O)[C@H](CCCNC(=N)N)NC(=O)[C@@H](NC(=O)[C@@H](N)CC(=O)O)CSSC[C@@H]2NC(=O)[C@@H]3CSSC[C@@H](C(=O)N[C@@H](C)C(=O)N[C@@H](Cc4c[nH]c5ccccc45)C(=O)N[C@@H](CC(=O)O)C(=O)N[C@@H](Cc4ccccc4)C(=O)N[C@H](C(=O)N[C@@H](Cc4ccccc4)C(=O)N[C@H](C(=O)O)[C@@H](C)O)[C@@H](C)O)NC(=O)[C@H](Cc4ccc(O)cc4)NC(=O)[C@H](CCCCN)NC(=O)[C@H](CCSC)NC(=O)[C@H](CCCCN)NC(=O)[C@H](CCCNC(=N)N)NC(=O)[C@H](CCCCN)NC(=O)[C@H](CSSC[C@H](NC(=O)[C@H](CC(=O)O)NC(=O)CNC(=O)[C@H](Cc4ccccc4)NC1=O)C(=O)N[C@@H](CCC(=O)O)C(=O)N[C@@H](CCCCN)C(=O)N[C@@H](CC(=O)O)C(=O)N[C@@H](CCC(=O)O)C(=O)N[C@@H](CC(=O)O)C(=O)N3)NC(=O)CNC(=O)[C@H](CC(C)C)NC(=O)[C@H](Cc1cnc[nH]1)NC(=O)[C@H](CCCCN)NC2=O [Pnc1a]
IC50 (hNav1.2 [1]): 0.126 µM
voltage dependence of activation, V50 (hNav1.7; 0.3 nM): −28.94±0.66 mV
voltage dependence of activation, V50 (hNav1.7; 10 nM): −4.40±2.2 mV
effect on the voltage dependence of fast inactivation (hNav1.7; 100 nM): no effect
effect on the voltage dependence of slow inactivation (hNav1.7; 100 nM): no effect
voltage dependence of activation, V50 (hNav1.7; 100 nM): −3.82±0.8 mV
IC50 (hNav1.6): 18.6 µM
IC50 (hNav1.5 [2]): 85.1 µM
IC50 (hNav1.8): 47.9 µM
IC50 (hNav1.1): 13.2 µM
pIC50 Nav1.3 (hNav1.3): 6.68±0.1 M
IC50 (hNav1.2 [3]): 2.95 µM
spontaneous pain behaviours evoked by OD1 ([4]; intraperitoneal 0.3, 1, 3 mg/kg, 15 min prior to OD1): concentration-dependently reversed; also recorded: dose-dependently reduced
spontaneous pain behaviours evoked by OD1 ([4]; intraplantar, co-injected with OD1, 100 nM, 300 nM, 1 μM): concentration-dependently reversed
IC50 (hNav1.4): 0.158 µM
IC50 (hNav1.5 [5]): 0.977 µM

Reference: patent US10662229B2, “Spider venom peptides and methods of use for modulating sodium channels” (priority 2016, dated 2020)
